Converted amounts (≈) assume the structure as drawn. Where two headings read alike, the source gives them in different places. No end group written: not given here.
How the values were obtained:
[1] = tested on: planktonic methicillin resistant S. aureus; assay: microbe, parasite or virus in culture; assay type: cell-based, Staphylococcus aureus; conditions: Staphylococcus aureus
PBMCs = assay: Cytotoxicity towards PBMCs, lactate dehydrogenase (LDH) release assay (Tables 6, 7); conditions: SPOT synthesized peptide ~25 μM, PBMCs from 3 human donors; Table 6
S. aureus (MRSA SAP0017) = assay type: cell-based, Staphylococcus aureus; conditions: SPOT synthesized control peptides, determined as in Table 5; Table 7
Method: Methods of assessment of anti-biofilm activity: MRSA S. aureus strain SAP0017 biofilm formation was initially analyzed using a static abiotic solid surface assay as described elsewhere (de la Fuente-Nunez et al., 2012) and shown graphically in FIG. 2. Dilutions (1/100) of overnight cultures were incubated in BM2 biofilm-adjusted medium [62 mM potassium phosphate buffer (pH 7), 7 mM (NH4)2SO4, 2 mM MgSO4, 10 μM FeSO4, 0.4% (wt/vol) glucose, 0.5% (wt/vol) Casamino Acids], or a nutrient rich medium such as Tryptic soy broth supplemented with 1% glucose, in polypropylene microtiter plates (Falcon, United States) in the absence (control) or presence of peptide. Peptide was added at time zero (prior to adding the diluted, overnight cultures) in varying concentrations, and the amount biofilm formation was recorded after 22-46 h incubation for most bacteria. To quantify biofilm growth, planktonic cells were removed and biofilm cells adhering to the side of the wells were stained with crystal violet, and absorbance at 595 nm was measured using a microtiter plate reader (Bio-Tek Instruments Inc., United States).

MCP-1 = MCP-1 chemokine induction in human PBMCs, ELISA (Tables 6, 7; FIGS. 6-9, 13); assay type: cell-based; conditions: SPOT synthesized control peptides, determined as in Table 6; Table 7
Method: Venous blood (20 ml) from healthy volunteers was collected in Vacutainer® collection tubes containing sodium heparin as an anticoagulant (Becton Dickinson, Mississauga, ON) in accordance with UBC ethical approval and guidelines. Blood was diluted 1:1 with complete RPMI 1640 medium and separated by centrifugation over a Ficoll-Paque® Plus (Amersham Biosciences, Piscataway, N.J., USA) density gradient. White blood cells were isolated from the buffy coat, washed twice in PBS and then resuspended in RPMI 1640 complete medium (containing 10% fetal bovine serum), and the number of peripheral blood mononuclear cells (PBMC) was determined by Trypan blue exclusion. PBMCs (5×10^5) were seeded into 12-well tissue culture dishes (Falcon; Becton Dickinson) at 0.75-1×10^6 cells/ml at 37° C. in 5% CO2. The above conditions were chosen to mimic conditions for circulating blood monocytes entering tissues at the site of infection via extravasation.
Following incubation of the cells under various treatment regimens, the tissue culture supernatants were centrifuged at 1000×g for 5 min, then at 10,000×g for 2 min to obtain cell-free samples. Supernatants were aliquoted and then stored at −20° C. prior to assay for various chemokines by capture ELISA (eBioscience and BioSource International Inc., CA, USA respectively)

IL-1β = assay: Suppression of LPS-induced IL-1β production in human PBMCs, ELISA (Tables 6, 7; FIGS. 6-9, 13); conditions: SPOT synthesized control peptides, determined as in Table 6; Table 7

Molecule	MIC ([1]; read-out: MIC (μM) MHB) [µM]	MIC ([1]; read-out: MIC (μM) TSB with 1% Glucose) [µM]	% Toxicity (LDH Release) (PBMCs) [%]	% Biofilm Inhibition (S. aureus (MRSA SAP0017)) [%]	MCPI production in PBMC (MCP-1) [pg/mL]	Fold Change in IL1-β relative to untreated LPS-stimulated cells (IL-1β)
CN[C@H](CC(C)C)C(=O)N[C@H]1C(=O)N[C@@H](CC(N)=O)C(=O)N[C@H]2C(=O)N[C@H]3C(=O)N[C@H](C(=O)N[C@H](C(=O)O)c4cc(O)cc(O)c4-c4cc3ccc4O)[C@H](O)c3ccc(c(Cl)c3)Oc3cc2cc(c3O[C@@H]2O[C@H](CO)[C@@H](O)[C@H](O)[C@H]2O[C@H]2C[C@](C)(N)[C@H](O)[C@H](C)O2)Oc2ccc(cc2Cl)[C@H]1O [Vancomycin]	0.34 (≈ 0.493 µg/mL)	0.68 (≈ 0.986 µg/mL)				
ALAIKVWIKILQ-NH2 [Imax-7, ALAIKVWIKILQ]			−1.1			
C10 (QLRVAWKRAWWA) [Peptide C10]				87	1313	1.34
C11 (KAVKKGRRAIVV) [Peptide C11]				106	197	1.12
C12 (VIRAKAVWGWVK) [Peptide C12]				104	498	1.01
C13 (VARAVQKRWRKK) [Peptide C13]				105	221	1.55
C14 (VKAKRWKWAQLA) [Peptide C14]				104	209	1.2
C15 (KRVQAKAWRLQR) [Peptide C15]				100	297	0.94
C16 (KKIRQWGKAAAW) [Peptide C16]				100	571	0.99
C17 (QQLRWKRVAKAI) [Peptide C17]				100	1677	1.05
C18 (IQIQLVKRWAVI) [Peptide C18]				100	1768	0.92
C19 (RLIQWGWKIWAV) [Peptide C19]				99	738	0.94
C20 (KLLGILKQAIVV) [Peptide C20]				100	106	0.78
C21 (VLLRVGARIVVG) [Peptide C21]				99	345	0.83
C22 (LLIAGKWWKLAI) [Peptide C22]				103	153	0.83
C23 (LKKIIVQAVGLI) [Peptide C23]				97	653	0.95
C24 (LKILIAQAKKGL) [Peptide C24]				101	1280	1.4
C25 (IGQVVLVKIKIA) [Peptide C25]				98	1762	1.21
C26 (VWLAQKIGKWIW) [Peptide C26]				100	1153	1.41
C27 (KKAIKVVAIGRI) [Peptide C27]				102	50	1.06
C28 (WIIRWIKIWLKI) [Peptide C28]				72	444	0.88
C29 (VIAKIVLLRAGL) [Peptide C29]				100	1809	0.99
C30 (RGARVIRWKLRR) [Peptide C30]				100	1153	1.23
C31 (RAIIKQRWQRRW) [Peptide C31]				103	1649	1.09
C32 (QRWKKWKVLKLR) [Peptide C32]				102	1614	1.11
GLIIKIIKKRLW-NH2 [IBFmax-15, GLIIKIIKKRLW]			25.1			

Reference: patent publication US20210138025A1, “CATIONIC PEPTIDES WITH IMMUNOMODULATORY AND/OR ANTI-BIOFILM ACTIVITIES” (priority 2018, published 2021)
